Data: article PMC6185871, “Discovery of super soft-drug modulators of sphingosine-1-phosphate receptor 1” (Bioorganic & Medicinal Chemistry Letters, 2018)

Tests used:
S1PR1 = molecular target: T1, S1PR1 (Homo sapiens, UniProt P21453); experiment: PathHunter CHO-K1 EDG1 β-Arrestin recruitment assay; format: cell-based
T1 construct: host or cells: CHO-K1 (PathHunter EDG1 β-Arrestin cell line)
Method: (§1) We selected human plasma stability as a model for human blood metabolism. […] S1PR1 activity was measured using a PathHunter β-Arrestin recruitment assay.[23]
[23] The PathHunter® CHO‐K1 EDG1 β‐Arrestin Cell Line (Discoverx) was used to assess agonist activity of the compounds. Briefly, compound at 5× desired concentration was added to cells and incubated at 37 °C for 90 min. Assay signal was generated through a single addition of PathHunter Detection reagent cocktail, followed by a one hour incubation at room temperature. Microplates were read following signal generation with a PerkinElmer Envision instrument for chemiluminescent signal detection. Percentage activity was calculated using the following formula: % Activity = 100% × (mean RLU of test sample − mean RLU of vehicle control)/(mean MAX control ligand − mean RLU of vehicle control).

[1] = Chromatographic hydrophobicity index (CHI) logD by reverse-phase HPLC; format: physicochemical
[2] = Kinetic aqueous solubility by laser nephelometry; format: physicochemical
in vitro = in vitro ADME, human; conditions: for half-life: human, plasma
Method: as §1

Human skin S9 stability = format: in vitro ADME; conditions: human skin S9 fraction, skin S9 over 180 mins in the presence of enzymatic cofactors
From the text: It may be that the esterases responsible for the metabolism of 12f are present in both human plasma and skin S9 fraction or that skin and plasma esterases have similar substrate affinities.

[3] = tested on: Langerhans cells migrating to the lymph node; set-up: method as in PMID 19194476; conditions: mice, topical application; cited from earlier work
plaque psoriasis = tested on: plaque psoriasis; set-up: method as in PMID 25127208; conditions: oral, phase II clinical trial of psoriasis; cited from earlier work
[4] = PathHunter β-Arrestin, n of 2, geometric mean, range in brackets

T1 sequence (P21453 whole entry): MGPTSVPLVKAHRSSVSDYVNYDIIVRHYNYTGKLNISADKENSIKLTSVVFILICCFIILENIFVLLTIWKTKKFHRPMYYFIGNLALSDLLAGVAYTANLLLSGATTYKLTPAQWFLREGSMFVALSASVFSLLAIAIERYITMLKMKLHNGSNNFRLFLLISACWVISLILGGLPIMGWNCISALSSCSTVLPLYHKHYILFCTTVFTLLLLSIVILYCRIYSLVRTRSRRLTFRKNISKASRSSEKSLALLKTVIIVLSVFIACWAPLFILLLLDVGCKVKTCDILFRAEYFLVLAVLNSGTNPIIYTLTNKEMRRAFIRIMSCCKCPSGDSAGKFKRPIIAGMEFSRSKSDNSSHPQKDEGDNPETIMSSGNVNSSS

Row | SMILES | CHI logD [1] | Kinetic solubility [2] | half-life (in vitro) | S1PR1 pIC50 (S1PR1; [4]) | also measured
1 | CCC/N=C1\S/C(=C\c2ccc(C(=O)OCc3oc(=O)oc3C)cc2)C(=O)N1c1ccccc1O [Compound 12f] | 3.3 | 79 µM | 0.15 h | – | S1PR1 modulator activity (in words) (S1PR1): inactive; metabolism in human plasma stability assay (in words) (in vitro): rapidly degraded; half-life at 3 h (Human skin S9 stability): 0.383 h
2 | CCC/N=C1\S/C(=C\c2ccc(C(=O)OC)cc2)C(=O)N1c1ccccc1C [Compound 5b] | >4.4 | 28 µM | > 3 h | 6.5 (0) | –
3 | CCC/N=C1\S/C(=C\c2ccc(C(=O)OC)c(Cl)c2)C(=O)N1c1ccccc1C [Compound 5a] | >4.4 | 39 µM | > 3 h | 8.6 (0.1) | improvement in S1PR1 activity compared to 5b (S1PR1; compared to 5b): 100 fold
4 | CCC/N=C1\S/C(=C\c2ccc(C(=O)OCCCO)cc2)C(=O)N1c1ccccc1O [Compound 12b] | 2.3 | 183 µM | > 3 h | – | –
5 | CCC/N=C1\S/C(=C\c2ccc(C(=O)NCCO)cc2)C(=O)N1c1ccccc1C [Compound 5d] | 2.3 | >250 µM | > 3 h | 7.0 (0) | –
6 | CCC/N=C1\S/C(=C\c2ccc(C(=O)OCC3COC(=O)O3)cc2)C(=O)N1c1ccccc1O (stereo not drawn) [Compound 12e] | 2.8 | 79 µM | 1.02 h | – | metabolism in human plasma stability assay (in words) (in vitro): did not show sufficient clearance; half-life at 3 h (Human skin S9 stability): 0.667 h
7 | CCC/N=C1\S/C(=C\c2ccc(C(=O)OCC(O)CO)cc2)C(=O)N1c1ccccc1O (stereo not drawn) [Compound 12c] | 1.8 | >250 µM | > 3 h | – | –
8 | CCCCCCCCc1ccc(CCC(N)(CO)CO)cc1 [fingolimod] | – | – | – | – | number of Langerhans cells migrating to the lymph node [3]: reduction
9 | CCC/N=C1\S/C(=C\c2ccc(CC(=O)OC)cc2)C(=O)N1c1ccccc1O [Compound 15a] | 3.2 | – | > 3 h | – | –
10 | CCC/N=C1\S/C(=C\c2ccc(OC[C@H](O)CO)c(Cl)c2)C(=O)N1c1ccccc1C [Ponesimod, ponesimod, reference compound] | 3.1 | 110 µM | > 3 h | 7.9 (0) | systemic side effects observed (plaque psoriasis): lymphopenia and transient bradycardia
11 | CCC/N=C1\S/C(=C\c2ccc(C(=O)OCCN3CCOCC3)cc2)C(=O)N1c1ccccc1O [Compound 12d] | 3.0 | 117 µM | 3 h | – | half-life at 3 h (Human skin S9 stability): 2.53 h
12 | CCC/N=C1\S/C(=C\c2ccc(OC[C@H](O)CO)c(Cl)c2)C(=O)N1c1ccccc1O [Compound 6] | – | – | – | – | IC50 (S1PR1; PathHunter β-Arrestin, n of 2, geometric mean, range in brackets, read-out: S1PR1 pIC50 (converted)): 0.0126 µM
13 | CCC/N=C1\S/C(=C\c2ccc(C(=O)OCCO)cc2)C(=O)N1c1ccccc1C [Compound 5c] | 3.4 | – | > 3 h | 6.9 (0) | –
14 | CCC/N=C1\S/C(=C\c2ccc(CCC(=O)OC)cc2)C(=O)N1c1ccccc1O [Compound 15b] | 3.5 | 79 µM | > 3 h | – | –
15 | CCC/N=C1\S/C(=C\c2ccc(C(=O)O)cc2)C(=O)N1c1ccccc1C [Compound 4a] | 1.0 | 163 µM | – | <6 (0) | –
16 | CCC/N=C1\S/C(=C\c2ccc(C(=O)O)cc2)C(=O)N1c1ccccc1O [Compound 11] | – | – | > 3 h | – | S1PR1 modulator activity (in words) (S1PR1): inactive
17 | CCC/N=C1\S/C(=C\c2ccc(C(=O)NCC(=O)N(C)C)cc2)C(=O)N1c1ccccc1O [Compound 12a] | 1.9 | – | > 3 h | – | metabolism in human plasma stability assay (in words) (in vitro): lack of metabolism
